Measurements taken from patent publication US20210059961A1, “CANNABINOID DOSING REGIME FOR ACNE” (priority 2018, published 2021).

What was measured:
[1] = target: human vanilloid receptor type 1 (VR1) (Homo sapiens, UniProt Q8NER1); details: in vitro; cited from earlier work
[2] = Healthy volunteer study of single and multiple-dose BTX 1503 5% Solution (BTX.2017.001): pharmacokinetics, safety; assay type: in vivo, human; details: for mean CBD trough level Day 15: multiple dose phase
Description: The pharmacokinetics (PK) of single and multiple-dose administration of BTX 1503 5% Solution were evaluated in a healthy volunteer study. In this study, BTX 1503 5% Solution was applied as a single dose either QD or BID (12 hrs apart) on Day 1 followed by a 6-day washout period, then either QD or BID for 14 days (Day 8 to Day 21). Five subjects were enrolled in each cohort and doses were escalated for each sequential cohort enrolled with the following doses. • Cohort 1: 37.5 mg CBD/day or 0.066 mg/cm^2/day^a applied as 1 mL of BTX 1503 5% (w/w) QD • Cohort 2: 75 mg CBD/day or 0.133 mg/cm^2/day applied as 1 mL BTX 1503 5% (w/w) BID • Cohort 3: 112.5 mg CBD/day or 0.199 mg/cm^2/day applied as 3 mL of BTX 1503 5% (w/w) QD • Cohort 4: 225 mg CBD/day or 0.398 mg/cm^2/day applied as 3 mL of BTX 1503 5% (w/w) BID Area of application assumed to be 565 cm^2 (i.e., on the face), which is reported by the European Union Scientific Committee on Consumer Safety (SCCS) to be half of the surface area for a female head (SCCS Notes of Guidance for the Testing of Cosmetic Substances and Their Safety Evaluation, 8th edition, 2012; Table 2).
Blood samples were taken for PK assessments on Day 1 (Baseline) at pre-dose (15 mins before dosing), 30, 60 and 90 mins and 2, 2.5, 3, 4, 6, 8 and 12 hrs, and 24 hrs after the first single dose. For participants that received BID dosing, samples were also taken at 30, 60 and 90 mins and 2, 2.5, 3, 4, 6, and 8 hrs after the second dose on Day 1.
During the multiple dose (14-day) phase, trough levels were obtained before the morning application on Day 15. On Day 21, blood samples were taken for PK assessments at pre-dose (15 mins before dosing), 30, 60 and 90 mins and 2, 2.5, 3, 4, 6, 8 and 12 hrs, 24 hrs and 48 hrs after the morning dose. For participants that received BID dosing, samples were also be taken at 30, 60 and 90 mins and 2, 2.5, 3, 4, 6, and 8 hrs after the second dose on Day 21. A sample was obtained on Day 23, 48 hrs after the last morning dose. […]

[3] = tested on: anandamide; details: in vitro; cited from earlier work
[4] = tested on: immortalized human sebocytes; details: cited from earlier work
[5] = Open-label study in patients with acne vulgaris: study drug plasma levels; assay type: in vivo, human
Description: Eligible subjects were enrolled within 14 days after the Screening Visit. Assessments for safety (CBC, chemistry, urinalysis, and vital signs) were obtained at the Baseline Visit (Day 1). If the Screening and Baseline Visits were not conducted on the same day, a UPT for WOCBP, lesion counts on the face, an Investigator's Global Assessment (IGA) for facial acne and a UDS were repeated. Baseline photographs of the face and a blood sample for Baseline study drug plasma levels were obtained. […] Cutaneous tolerability assessments were conducted at one hour after the first application. […]
Safety was the primary outcome measure. The safety outcomes were measured through assessment of: • AEs monitored from time of consent through the end of study. • Cutaneous tolerability (erythema, scaling, dryness, burning/stinging, and irritant/allergic contact dermatitis) collected at Baseline, Day 14, Day 28, and Day 35 and graded using the following scale: 0, None; 1, Slight; 2, Moderate; 3, Severe. • Vital signs (temperature, blood pressure, and pulse) obtained at Baseline, Day 14, Day 28 and Day 35. • Complete blood count (CBC), chemistry, and urinalysis at Baseline and at Day 28. Blood levels of study drug will be measured at Baseline and prior to dosing (trough level) on Day 14, Day 28, and Day 35. […]

[6] = tested on: cardiac inflammation; details: injected into rats; cited from earlier work
[7] = tested on: airway obstruction; details: intravenous, sensitized guinea-pigs; cited from earlier work
[8] = Skin permeation of CBD, Franz-type diffusion cell; assay type: in vitro ADME
Description: Dermatomed skin from a single donor was mounted in a Franz-type diffusion cell (0.55 cm^2 receptor fluid exposure surface area) and dosed with 5 ul of 2-[3-methyl-6-(1-methylethenyl)-2-cyclohexen-1-yl]-5-pentyl-1,3-benzenediol (CBD), BTX 1503 5% Solution, formulated in an mixture of a volatile solvent (hexylmethyldisiloxane/polymethylsiloxane—93% w/w), and residual solvent (arlamol E—2% w/w) at a concentration of 5.0% (w/w; 35.5 mg/ml). Following dosing, receptor phase samples were collected at 4, 10, 24 and 48 hours; after which the study was terminated.
The residual formulation was removed by tape stripping and the epidermis and dermis separated by blunt dissection. The levels of CBD in the epidermis, dermis, and receptor fluid samples were then analyzed using a bioanalytical method with LC-MS/MS detection.

[9] = 5 ul of 5.0% w/w solution, 48-hour exposure

Sequence of human vanilloid receptor type 1 (VR1) (Q8NER1 whole entry): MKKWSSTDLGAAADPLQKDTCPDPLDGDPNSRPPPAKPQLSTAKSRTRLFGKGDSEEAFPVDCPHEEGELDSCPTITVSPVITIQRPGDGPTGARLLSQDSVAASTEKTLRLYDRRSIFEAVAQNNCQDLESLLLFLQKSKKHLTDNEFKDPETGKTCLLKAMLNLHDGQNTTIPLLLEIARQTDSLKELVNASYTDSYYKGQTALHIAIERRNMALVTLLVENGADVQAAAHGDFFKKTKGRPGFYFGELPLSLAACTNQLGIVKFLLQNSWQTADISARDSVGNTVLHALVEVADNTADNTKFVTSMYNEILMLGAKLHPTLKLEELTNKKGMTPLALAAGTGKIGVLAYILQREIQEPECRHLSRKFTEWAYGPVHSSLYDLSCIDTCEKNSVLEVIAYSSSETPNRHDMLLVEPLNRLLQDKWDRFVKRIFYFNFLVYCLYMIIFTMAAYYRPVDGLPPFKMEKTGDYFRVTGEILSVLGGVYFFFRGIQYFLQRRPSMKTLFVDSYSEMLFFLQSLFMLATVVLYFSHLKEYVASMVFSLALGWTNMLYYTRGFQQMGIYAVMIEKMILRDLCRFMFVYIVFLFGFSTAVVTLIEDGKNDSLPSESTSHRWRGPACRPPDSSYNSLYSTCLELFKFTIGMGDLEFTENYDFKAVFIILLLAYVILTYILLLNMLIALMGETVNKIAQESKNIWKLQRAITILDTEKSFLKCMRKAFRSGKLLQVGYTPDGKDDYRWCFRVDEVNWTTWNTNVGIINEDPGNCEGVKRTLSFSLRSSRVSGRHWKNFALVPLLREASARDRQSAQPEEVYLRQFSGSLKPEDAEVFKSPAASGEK

## C=C(C)C1CCC(C)=CC1c1c(O)cc(CCCCC)cc1O (stereo not drawn) [CBD, 2-[3-methyl-6-(1-methylethenyl)-2-cyclohexen-1-yl]-5-pentyl-1,3-benzenediol]
[1]
  effect on human vanilloid receptor type 1 (VR1): stimulate
[2]; Cohort 1: 1 mL QD
  mean pre-dose CBD level Day 21: 0.545 ng/mL
[2]; Cohort 2: 1 mL BID
  mean pre-dose CBD level Day 21: 0.770 ng/mL
  mean CBD trough level Day 15: 0.781 ng/mL
[2]; Cohort 3: 3 mL QD
  mean pre-dose CBD level Day 21: 0.715 ng/mL
  mean CBD trough level Day 15: 0.525 ng/mL
[2]; Cohort 4, one subject
  CBD trough level Day 15 of the outlier subject: 5.99 ng/mL
[2]; Cohort 4: 3 mL BID
  mean pre-dose CBD level Day 21: 1.553 ng/mL
[2]; Cohort 4: 3 mL BID, all subjects
  mean CBD trough level Day 15: 2.11 ng/mL
[2]; Cohort 4: 3 mL BID, one outlier excluded
  mean CBD trough level Day 15 without outlier subject: 1.16 ng/mL
[2]; accumulation after 14 days dosing
  Cmax Day 21 relative to Day 1 Cmax, mean: 1.92 times
[3]
  effect on anandamide: inhibit
[4]
  effects on immortalized human sebocytes: lipostatic, anti-proliferative, and anti-inflammatory effects
[5]; Day 35 visit, 7 days after final dose
  subjects with circulating levels of CBD: Nine
[5]; throughout the study, 225 mg CBD per day
  study drug (CBD) plasma levels: low
[6]
  effect on cardiac inflammation: attenuated cardiac inflammation
[7]
  effect on airway obstruction: reduced airway obstruction
[8]; [9]
  CBD in the receptor phase (skin permeation): < 278 ng/cm^2
  CBD in the receptor phase (skin permeation), percent of applied dose: less than 0.081%
[8]; 48-hour period
  dermal deposition of CBD: 4.54 % of the applied dose
  dermis concentration: 8,408 ng/cm^2
  dermis concentration per tissue: 1,933 ng/g of tissue
  dermis concentration, volume equivalent: ~1,933 ng/mL
  epidermal deposition of CBD: 13.17 % of the applied dose
